Tested on: B16F10 tumor-bearing mice
Test: Luciferase expression tumor/whole body after intratumoral injection, B16F10 tumor-bearing mice
Type: in vivo, C57BL/6 mice
Conditions: for LNP (tumor/whole body)% ratio of luciferase expression: cationic lipid:DSPC:PEG-DMG:cholesterol 50:10:1.5:38.5 (groups 1-1 to 1-3); for LNP (tumor/whole body)% ratio of luciferase expression / LPP (tumor/whole body)% ratio of luciferase expression: 5 μg luciferase mRNA intratumoral, 6 hours; for LPP (tumor/whole body)% ratio of luciferase expression: cationic lipid:DSPC:PEG-DMG:cholesterol 50:10:1.5:38.5 (groups 1-4 to 1-6)
Protocol: (§1) Female C57BL/6 mice (Beijing Vital River Laboratory Animal Technology Co., Ltd.) of 6 weeks of age with a weight of around 20 g were used, and each mouse was injected subcutaneously unilaterally with 1×10^6 murine-derived cutaneous melanoma cells, B16F10 cells. When tumors grew to a size of about 450 mm^3, B16F10 tumor-bearing mice were divided into 6 groups (1-1, 1-2, 1-3, 1-4, 1-5, and 1-6 groups, with 3 mice per group), and LPP and LNP solutions (50 μL) containing 5 μg of luciferase mRNA prepared by the prescriptions were respectively taken and administered to the mice by intratumoral injection. 6 hours after the administration, mice were injected intraperitoneally with a 150 mg/kg […] substrate. The bioluminescence was measured in a Xenogen IVIS-200 imaging system 7 minutes after substrate injection to evaluate the expression and distribution of the luciferase mRNA in the mice.
as §1, with “into 8” for “into 6”, “groups (2-1, 2-2, 2-3, 2-4, 2-5, 2-6, 2-7,” for “groups (1-1, 1-2, 1-3, 1-4, 1-5,”, “and 2-8” for “and 1-6”, “and” for “and LPP and LNP”
as §1, with “mm^3, the” for “mm^3, B16F10 tumor-bearing”, “into 8” for “into 6”, “groups (3-1, 3-2, 3-3, 3-4, 3-5, 3-6, 3-7, 3-8” for “groups (1-1, 1-2, 1-3, 1-4, 1-5, and 1-6”, “and” for “and LPP and LNP”

Row | SMILES | LNP (tumor/whole body)% ratio of luciferase expression | LPP (tumor/whole body)% ratio of luciferase expression | ratio of luciferase expression of tumor/whole body, rank among cationic lipids (Example 3, versus ALC-0315 and SW-II-127)
1 | CCCCCCCCC(CCCCCC)C(=O)OCCCCCCN(CCCCO)CCCCCCOC(=O)C(CCCCCC)CCCCCCCC (stereo not shown) [ALC-0315, reference compound] | 4.9% | 11.2 ± 7.9% | 
2 | CCCCCCCCC(CCCCCCCC)OC(=O)CCCCCCCN(CCO)CCCCCCC(=O)OCc1ccc(CCCCCC)cc1 [SW-II-127] | 15.0 ± 18.5% | 25.7 ± 15.1% | 
3 | CCCCCCCCCOC(=O)CCCCCCCN(CCO)CCCCCCCC(=O)OCCCc1ccc(CCCCC)c(CCCCC)c1 [SW-II-135-1] | 43.6 ± 34.7% | 58.6 ± 36.4% | highest ratio of luciferase expression of tumor/whole body

Source: patent US20250387486A1, “LIPID COMPOSITION” (STEMIRNA THERAPEUTICS CO., LTD., priority 2022, published 2025)
